In the experiment the target is human CXCR2 (Homo sapiens (Human), UniProt P25025). As to the kind of experiment: CXCR2 inhibition: calcium fluorescence assay (FLIPR). In kind it is cell-based. To be noted: chemokine IL-8; CHO-K1 cells stably transfected with human CXCR2 and Gα16; Fluo-4 calcium response. From the text: Determination of CXCR2 Inhibition: Calcium Fluorescence Assay (FLIPR)
The assay is based on the detection of intracellular calcium changes detected by the selective, calcium-chelating dye, Fluo-4 (Molecular Probes). A large fluorescence intensity increase is observed upon calcium association with Fluo-4. The dye is delivered to the cell interior using an acetoxymethylester form of Fluo-4, where the intracellular esterase activity results in the charged species being released and trapped within the cytoplasm of the cell. […] By co-expressing the CXCR2 receptor and the promiscuous Gα16 protein, activation of this chemokine receptor is directed into this phospholipase C cascade resulting in intracellular calcium mobilization.
The CHO-K1 cells stably transfected with human CXCR2 and the promiscuous Gα16 protein were maintained in a log phase of growth at 37° C. and 5% CO2 in the following media: Iscove's, 10% FBS, 1× Penicillin-Streptomycin, 400 μg/mL G418 and 350 μg/mL Zeocin. Approximately 24-48 hours prior to the assay, 20,000-30,000 cells/well were plated onto a 96-well black/clear bottomed assay plate (Becton Dickinson) with a well volume of 180 μl. […] The IC50 value of a compound was determined by calculation of % inhibition of total calcium response to the chemokine.

The source of these data is US8552033B2, “Inhibitors of CXCR2” (SANOFI, priority 2006, dated 2013).

For orientation: IC50 means the concentration needed to halve the response being measured.

human CXCR2, sequence (P25025 whole entry): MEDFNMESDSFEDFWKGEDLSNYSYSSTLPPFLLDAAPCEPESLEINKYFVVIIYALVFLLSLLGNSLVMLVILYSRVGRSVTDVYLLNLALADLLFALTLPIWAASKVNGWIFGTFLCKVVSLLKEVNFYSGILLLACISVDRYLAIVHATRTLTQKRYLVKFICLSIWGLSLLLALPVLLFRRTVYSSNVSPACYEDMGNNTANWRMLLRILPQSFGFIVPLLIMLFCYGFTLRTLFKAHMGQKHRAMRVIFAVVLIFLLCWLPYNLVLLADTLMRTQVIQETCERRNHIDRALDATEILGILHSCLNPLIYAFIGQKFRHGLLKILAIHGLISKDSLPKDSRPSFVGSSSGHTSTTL

`CCC(NC(=O)c1ccc2ccccc2c1OCc1ccc(C(F)(F)F)cc1)(C(=O)O)c1ccccc1` (centres unmarked) [Example 10, 2-Phenyl-2-{[1-(4-trifluoromethyl-benzyloxy)-naphthalene-2-carbonyl]-amino}-butyric acid]: the half-inhibitory concentration (IC50) turned out to be 2.2 µM.
As for `O=C(NC1(C(=O)O)CCOCC1)c1cc(F)c2ccccc2c1OCc1ccc(SC(F)(F)F)cc1` [Example 12, 4-{[4-Fluoro-1-(4-trifluoromethylsulfanyl-benzyloxy)-naphthalene-2-carbonyl]-amino}-tetrahydro-pyran-4-carboxylic acid], the figure is 6 µM.
